Source: publication PMC5831498 (Virus research, 2018)
Where two headings read alike, the source gives them in different places. Marks after values point to notes of the source that are not given here. Bridge positions count the residues as written; N and C are the ends. Square brackets hold non-standard residues; d marks the D form. Peptide text beside a SMILES is read from it. * marks the point of attachment. Ileψ(thiazoline)Cys = CC[C@H](C)[C@H](N)C1=N[C@H](C(=O)*)CS1; dOrn = NCCC[C@@H](N)C(=O)O

Tests used:
[1] = test system: Swine influenza A virus (A/swine/OH/511445/2007 [H1N1], Oh7); assay: microbe, parasite or virus in culture; assay type: cell-based; conditions: read-out: EC50 A/swine/OH/2007
[2] = test system: Human influenza A virus (A/WS/33 [H1N1]); assay: microbe, parasite or virus in culture; assay type: cell-based; conditions: for EC50: read-out: EC50 A/WS/33; for inhibition of replication of A/WS/33 (in words): MDCK cells; for SI for A/WS/33 (selectivity index): CC50/EC50, MDCK cells
MDCK cells = assay: Nonspecific cytotoxicity, CytoTox 96 assay; assay type: cell-based, canine; conditions: 24 hr treatment, SD in parentheses
PDI1 enzyme = PDI1 enzyme (Homo sapiens, UniProt P07237); assay: ProteoStat PDI assay; assay type: biochemical; conditions: for PDI1 activity relative to mock: mock = 100, SD in parentheses; for effect on PDI1 activity (in words): at 10 or 50 µM
Group A rotavirus SA11 = assay: Rotavirus replication in MA104 cells; assay type: cell-based
[3] = test system: influenza B virus (B/Lee/40); assay: Antiviral assay, virus titration by TCID50, MDCK cells; assay type: cell-based; conditions: for inhibition of replication of B/Lee/40 (in words): MDCK cells; for EC50: Influenza B virus, MDCK, read-out: EC50 B/Lee/40
[4] = Nonspecific cytotoxicity, CytoTox 96 assay; assay type: cell-based, canine; conditions: dog, MDCK cells
A/WS/33 = assay type: cell-based, influenza A virus
[5] = Influenza A virus, H1N1, MDCK, in Sus scrofa

Sequence of PDI1 enzyme (P07237 18-508): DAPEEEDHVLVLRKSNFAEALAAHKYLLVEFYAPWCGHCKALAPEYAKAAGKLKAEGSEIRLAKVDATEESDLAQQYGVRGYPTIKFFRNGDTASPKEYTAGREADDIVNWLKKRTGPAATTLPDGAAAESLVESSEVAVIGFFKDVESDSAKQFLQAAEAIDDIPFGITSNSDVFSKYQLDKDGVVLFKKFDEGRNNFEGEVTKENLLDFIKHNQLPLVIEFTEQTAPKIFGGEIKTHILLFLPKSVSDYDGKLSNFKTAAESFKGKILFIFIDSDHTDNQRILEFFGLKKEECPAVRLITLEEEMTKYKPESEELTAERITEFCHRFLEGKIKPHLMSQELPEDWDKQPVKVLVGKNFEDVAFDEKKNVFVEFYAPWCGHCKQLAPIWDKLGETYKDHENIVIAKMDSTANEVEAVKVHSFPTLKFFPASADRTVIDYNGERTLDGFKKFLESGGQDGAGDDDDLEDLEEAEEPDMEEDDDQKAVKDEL

Compound: COC(=O)C1(C)c2[nH]c3ccccc3c2CCN1C(=O)CCl (centres unmarked) [16F16]
- EC50 [1]: 5.8 µM
- EC50 [2]: 5.1 µM
- CC50 (MDCK cells): 15 µM
- PDI1 activity relative to mock (PDI1 enzyme; compound at 10 µM): 89 (6) %
- PDI1 activity relative to mock (PDI1 enzyme; compound at 50 µM): 59 (6) ^* %

Compound: C=CCNC1=C2C[C@@H](C)C[C@H](OC)[C@H](O)[C@@H](C)/C=C(\C)[C@H](OC(N)=O)[C@@H](OC)/C=C\C=C(/C)C(=O)NC(=CC1=O)C2=O [17-AAG, 17-N-Allylamino-17-demethoxygeldanamycin]
- EC50 (Group A rotavirus SA11; read-out: EC50 rotavirus SA11 replication, MA104 cells): < 1 µM
- inhibition of replication of A/WS/33 (in words) [2]: did not show any inhibitory activity
- EC50 [2]: > 10 µM
- inhibition of replication of B/Lee/40 (in words) [3]: did not show any inhibitory activity

Compound: NC12CC3CC(CC(C3)C1)C2 [Amantidine, amantadine]
- EC50 [1, 5]: 1.4 µM
- SI for A/WS/33 (selectivity index) [2]: >83.3
- EC50 ([2]; Influenza A virus, H1N1, MDCK): 1.2 µM
- inhibition of replication of A/WS/33 (in words) [2]: potently inhibited
- CC50 at 24 h [4]: > 100 µM
- effect on PDI1 activity (in words) (PDI1 enzyme): little effect
- PDI1 activity relative to mock (PDI1 enzyme; compound at 10 µM): 102 (5) %
- PDI1 activity relative to mock (PDI1 enzyme; compound at 50 µM): 103 (4) %
- EC50 [3]: > 100 µM

Compound: CC[C@H](C)[C@H](N)C1=N[C@H](C(=O)N[C@@H](CC(C)C)C(=O)N[C@H](CCC(=O)O)C(=O)N[C@H](C(=O)N[C@H]2CCCCNC(=O)[C@H](CC(N)=O)NC(=O)[C@@H](CC(=O)O)NC(=O)[C@H](Cc3cnc[nH]3)NC(=O)[C@@H](Cc3ccccc3)NC(=O)[C@H]([C@@H](C)CC)NC(=O)[C@@H](CCCN)NC2=O)[C@@H](C)CC)CS1 [Bacitracin A, bacitracin A] ({Ileψ(thiazoline)Cys}-L[dE]IK[dOrn]I[dF]H[dD]N; lactam 4-C)
- EC50 [1, 5]: > 500 µM
- EC50 ([2]; Influenza A virus, H1N1, MDCK): > 500 µM
- PDI1 activity relative to mock (PDI1 enzyme; compound at 10 µM): 81 (3) ^* %
- PDI1 activity relative to mock (PDI1 enzyme; compound at 50 µM): 53 (12) ^* %
- EC50 [3]: > 500 µM

Compound: CC(C)(C)N([O])C(C)(C)C [Di-tert-butyl nitroxide (DTBN), Di-tert-butyl nitroxide]
- EC50 [2]: 210 µM
- CC50 (MDCK cells): > 1000 µM
- PDI1 activity relative to mock (PDI1 enzyme; compound at 10 µM): 67 (6) ^* %
- PDI1 activity relative to mock (PDI1 enzyme; compound at 50 µM): 25 (9) ^* %

Compound: COC1=C2C[C@@H](C)C[C@H](OC)[C@H](O)[C@@H](C)/C=C(\C)[C@H](OC(N)=O)[C@@H](OC)/C=C\C=C(/C)C(=O)NC(=CC1=O)C2=O [GDA, geldanamycin]
- EC50 (Group A rotavirus SA11; Rotavirus A, MA104, read-out: EC50 rotavirus SA11 replication): < 1 µM
- EC50 [1, 5]: > 10 µM
- EC50 ([2]; Influenza A virus, H1N1, MDCK): > 10 µM
- inhibition of replication of A/WS/33 (in words) [2]: did not show any inhibitory activity
- effect on PDI1 activity (in words) (PDI1 enzyme): little effect
- PDI1 activity relative to mock (PDI1 enzyme; compound at 10 µM): 102 (5) %
- PDI1 activity relative to mock (PDI1 enzyme; compound at 50 µM): 96 (2) %
- EC50 [3]: > 10 µM
- inhibition of replication of B/Lee/40 (in words) [3]: did not show any inhibitory activity

Compound: O=c1c(O[C@@H]2O[C@H](CO)[C@@H](O)[C@H](O)[C@H]2O)c(-c2ccc(O)c(O)c2)oc2cc(O)cc(O)c12 [Isoquercetin (IQ), isoquercetin]
- EC50 [1, 5]: 1.2 µM
- SI for A/WS/33 (selectivity index) [2]: 90
- EC50 ([2]; Influenza A virus, H1N1, MDCK): 0.5 µM
- CC50 at 24 h [4]: 45.5 µM
- PDI1 activity relative to mock (PDI1 enzyme; compound at 10 µM): 32 (5) ^* %
- PDI1 activity relative to mock (PDI1 enzyme; compound at 50 µM): 13 (8) ^* %
- EC50 [3]: 1.2 µM

Compound: C/C1=C/[C@H](O)C(C)(C)CCC/C(C)=C/C[C@H]1OC(=O)c1ccc(O)cc1 [Juniferdin, juniferdin]
- EC50 [1, 5]: 1.8 µM
- reduction of viral proteins (NP or M1), Western blot (A/WS/33): dose-dependent
- SI for A/WS/33 (selectivity index) [2]: 8.8
- EC50 ([2]; Influenza A virus, H1N1, MDCK): 1.5 µM
- CC50 at 24 h [4]: 13.2 µM
- PDI1 activity relative to mock (PDI1 enzyme; compound at 10 µM): 41 (5) ^* %
- PDI1 activity relative to mock (PDI1 enzyme; compound at 50 µM): 6 (4) ^* %
- EC50 [3]: 3.1 µM

Compound: CC(=O)Oc1ccccc1C(=O)Nc1ncc([N+](=O)[O-])s1 [NTZ, nitazoxanide]
- EC50 [1, 5]: 1.3 µM
- SI for A/WS/33 (selectivity index) [2]: 16
- EC50 ([2]; Influenza A virus, H1N1, MDCK): 0.8 µM
- CC50 at 24 h [4]: 12.8 µM
- PDI1 activity relative to mock (PDI1 enzyme; compound at 10 µM): 81 (2) ^* %
- PDI1 activity relative to mock (PDI1 enzyme; compound at 50 µM): 65 (4) ^* %
- EC50 [3]: 1.5 µM

Compound: CCOC(=O)C1=C[C@@H](OC(CC)CC)[C@H](NC(C)=O)[C@@H](N)C1 [Oseltamivir, oseltamivir phosphate]
- EC50 [1, 5]: 0.5 µM
- SI for A/WS/33 (selectivity index) [2]: >660
- EC50 ([2]; Influenza A virus, H1N1, MDCK): 0.15 µM
- inhibition of replication of A/WS/33 (in words) [2]: potently inhibited
- CC50 at 24 h [4]: > 100 µM
- effect on PDI1 activity (in words) (PDI1 enzyme): little effect
- PDI1 activity relative to mock (PDI1 enzyme; compound at 10 µM): 103 (6) %
- PDI1 activity relative to mock (PDI1 enzyme; compound at 50 µM): 95 (5) %
- EC50 [3]: 1.1 µM
- inhibition of replication of B/Lee/40 (in words) [3]: potently inhibited

Compound: Epigallocatechin 3-gallate [Epigallocatechin 3-gallate (EGCG)]
- EC50 [2]: 4.5 µM
- CC50 (MDCK cells): 35.4 µM
- PDI1 activity relative to mock (PDI1 enzyme; compound at 10 µM): 68 (7) ^* %
- PDI1 activity relative to mock (PDI1 enzyme; compound at 50 µM): 28 (5) ^* %

Compound: PACMA31
- reduction of viral proteins (NP or M1), Western blot (A/WS/33): dose-dependent
- EC50 [2]: 6.1 µM
- CC50 (MDCK cells): 12.5 µM
- PDI1 activity relative to mock (PDI1 enzyme; compound at 10 µM): 91 (3) %
- PDI1 activity relative to mock (PDI1 enzyme; compound at 50 µM): 71 (9) ^* %
